Active and inactive are the calls of the source. The rule behind the calls is not given here.
What was measured:
[1] = biological target: T1, Tryptophan 5-hydroxylase 1 (Homo sapiens, UniProt P17752); assay: Inhibition of recombinant MBP-tagged full length human THP1 using L-Trp as substrate assessed as formation of 5-HTP by measuring fluorescent property
T1 sequence (P17752 whole entry): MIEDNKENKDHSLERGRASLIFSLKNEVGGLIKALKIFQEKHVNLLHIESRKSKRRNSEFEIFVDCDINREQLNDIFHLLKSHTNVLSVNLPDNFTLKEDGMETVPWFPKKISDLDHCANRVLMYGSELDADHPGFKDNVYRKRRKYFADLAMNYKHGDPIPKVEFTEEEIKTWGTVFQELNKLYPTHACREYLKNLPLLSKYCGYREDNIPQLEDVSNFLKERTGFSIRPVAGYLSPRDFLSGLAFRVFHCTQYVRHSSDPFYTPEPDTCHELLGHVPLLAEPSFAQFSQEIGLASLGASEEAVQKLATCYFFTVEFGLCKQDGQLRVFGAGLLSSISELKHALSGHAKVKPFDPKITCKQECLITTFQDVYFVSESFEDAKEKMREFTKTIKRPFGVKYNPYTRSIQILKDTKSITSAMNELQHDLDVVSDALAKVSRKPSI

[2] = biological target: T2, Tryptophan 5-hydroxylase 1 (Homo sapiens) (UniProt P17752); assay: Binding affinity to […] (unknown origin) assessed as association rate constant by surface plasmon resonance analysis
T2 sequence (whole entry): T1 sequence (P17752 whole entry)

[3] = biological target: T1, Tryptophan 5-hydroxylase 1; assay: Inhibition of THP1 in human serotonergic BON cells assessed as reduced the intracellular serotonin levels incubated for 72 hrs; assay type: cell-based
[4] = Cytotoxicity against human serotonergic BON cells assessed as cell viability at 300 uM incubated for 72 hrs by WST-1 assay; assay type: toxicity, cell-based
[5] = biological target: T3, Cytochrome P450 1A2 (Homo sapiens, UniProt P05177); assay: Inhibition of CYP1A2 in human liver microsome using phenacetin as substrate measured upto 50 uM incubated for 10 mins followed by NADPH addition incubated for 10 mins by LC/MS/MS analysis; assay type: ADME; conditions: microsomes, 20 min
T3 sequence (P05177 whole entry): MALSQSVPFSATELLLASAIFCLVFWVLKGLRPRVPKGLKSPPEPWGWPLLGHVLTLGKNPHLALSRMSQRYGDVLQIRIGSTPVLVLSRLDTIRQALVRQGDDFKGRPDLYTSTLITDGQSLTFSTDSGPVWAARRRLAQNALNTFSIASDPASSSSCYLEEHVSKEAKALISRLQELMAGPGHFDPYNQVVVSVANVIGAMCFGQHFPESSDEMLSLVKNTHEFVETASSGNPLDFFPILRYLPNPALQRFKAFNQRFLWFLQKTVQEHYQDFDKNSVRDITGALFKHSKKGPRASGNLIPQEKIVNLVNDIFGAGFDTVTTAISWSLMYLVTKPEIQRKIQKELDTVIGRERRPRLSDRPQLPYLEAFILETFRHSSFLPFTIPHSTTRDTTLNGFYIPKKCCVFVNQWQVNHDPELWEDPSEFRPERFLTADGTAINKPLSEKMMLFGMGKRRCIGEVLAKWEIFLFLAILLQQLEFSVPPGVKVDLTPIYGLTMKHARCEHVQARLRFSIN

[6] = Substrate activity at BCRP in human Caco-2 cells seeded in polyethylene membranes at 2 uM in presence or absence of E3S incubated for 2 hrs by LC-MS/MS analysis based substrate identification assay; assay type: ADME, cell-based; conditions: caco-2, 2 h
[7] = Cmax in CD-1 (ICR) mouse at 50 mg/kg, po measured upto 1440 mins by LC-MS/MS analysis; assay type: ADME, organism-based; parameters: dose 50 mg/kg, time < 1440 min, route po; conditions: in vivo
[8] = AUC (0 to last) in CD-1 (ICR) mouse at 50 mg/kg, po measured upto 1440 mins by LC-MS/MS analysis; assay type: ADME, organism-based; parameters: time < 1440 min, dose 50 mg/kg, route po; conditions: in vivo
[9] = AUCExtra in CD-1 (ICR) mouse at 50 mg/kg, po measured upto 1440 mins by LC-MS/MS analysis; assay type: ADME, organism-based; conditions: in vivo, 24 h
[10] = AUMCExtra in CD-1 (ICR) mouse at 50 mg/kg, po measured upto 1440 mins by LC-MS/MS analysis; assay type: ADME, organism-based; conditions: in vivo, 24 h
[11] = Drug uptake in CD-1 (ICR) mouse lung at 50 mg/kg measured 0.5 hrs by LC-MS/MS analysis; assay type: ADME, organism-based; conditions: read-out: Drug uptake
[12] = Initial drug concentration in Sprague-Dawley rat at 10 mg/kg, iv measured upto 1440 mins by LC-MS/MS analysis; assay type: ADME, organism-based; conditions: in vivo
[13] = Half life in Sprague-Dawley rat at 10 mg/kg, iv measured upto 1440 mins by LC-MS/MS analysis; assay type: ADME, organism-based; conditions: in vivo
[14] = MRT (0 to infinitive) in Sprague-Dawley rat at 20 mg/kg, po measured upto 1440 mins by LC-MS/MS analysis; assay type: ADME, organism-based; conditions: in vivo
[15] = AUMCExtra in Sprague-Dawley rat at 20 mg/kg, po measured upto 1440 mins by LC-MS/MS analysis; assay type: ADME, organism-based; conditions: in vivo, 24 h
[16] = Cmax in Sprague-Dawley rat at 50 mg/kg, po measured upto 1440 mins by LC-MS/MS analysis; assay type: ADME, organism-based; parameters: time < 1440 min, dose 50 mg/kg, route po; conditions: in vivo
[17] = MRT (0 to infinitive) in Sprague-Dawley rat at 50 mg/kg, po measured upto 1440 mins by LC-MS/MS analysis; assay type: ADME, organism-based; conditions: in vivo
[18] = Plasma concentration in Sprague-Dawley rat at 50 mg/kg, po measured at 2 hrs by LC-MS/MS analysis; assay type: ADME, organism-based
[19] = Drug uptake in Sprague-Dawley rat lung at 50 mg/kg, po measured at 2 hrs by LC-MS/MS analysis; assay type: ADME, organism-based; conditions: read-out: Drug uptake
[20] = Plasma concentration in Sprague-Dawley rat at 20 mg/kg, po measured at 0.5 hrs by LC-MS/MS analysis; assay type: ADME, organism-based
[21] = Plasma concentration in Sprague-Dawley rat at 20 mg/kg, po measured at 2 hrs by LC-MS/MS analysis; assay type: ADME, organism-based
[22] = Reduction in serotonin level in C57BL/6N mouse duodenum at 1.5 mg/kg, po bid treated for 7 days by HPLC analysis relative to control; assay type: functional; conditions: 168 h, time 7 day
[23] = Reduction in serotonin level in C57BL/6N mouse duodenum at 15 mg/kg, po bid treated for 7 days by HPLC analysis relative to control; assay type: functional; conditions: 168 h, time 7 day
[24] = Toxicity in C57BL/6N mouse assessed as body weight change at 1.5 to 15 mg/kg, po bid treated for 7 days; assay type: organism-based; conditions: in vivo, 168 h, dose 1.5-15 mg/kg, time 7 day
[25] = test system: Mus musculus; assay: Effect on C57BL/6N mouse assessed as brain serotonin turnover measuring 5-HT/TRP ratio at 1.5 to 50 mg/kg, po bid treated for 6 to 7 days; assay type: functional, organism-based; conditions: dose 1.5-50 mg/kg, time 6-7 day
[26] = test system: Mus musculus; assay: Effect on total travelled distance of C57BL/6N mouse at 100 mg/kg, po treated for 14 days by locomotor activity test; assay type: functional, organism-based; conditions: time 14.0 day
[27] = test system: Mus musculus; assay: Effect on hedonic component behavior in C57BL/6N mouse at 50 mg/kg, po treated for 14 days by sucrose preference test; assay type: functional, organism-based; conditions: time 14.0 day
[28] = Tlast in Sprague-Dawley rat at 50 mg/kg, po measured upto 1440 mins by LC-MS/MS analysis; assay type: ADME, organism-based; conditions: in vivo, 24 h

SMILES: CCn1c(=O)[nH]c(=O)c2c1nc(Cc1cn3cc(C)sc3n1)n2CC1COC1
- IC50 [1]: 77 nM
- Ka [2]: 2.29 10^6/M/s
- IC50 [3]: 952 nM
- Activity [4]: Non-Toxic
- inhibition (INH) [5]: Not Active
- Activity [6]: Not Active
- Cmax [7]: 6950 ng/mL
- AUC(0-t) at 24 h [8]: 8540 ng·h/mL
- %AUCextra [9]: 0.552%
- AUMC [10]: 4.85%
- concentration at 0.5 h [11]: 1720 ng/g
- C0 at 24 h [12]: 16300 ng/mL
- half-life [13]: 3.39 h
- MRT inf [14]: 3.14 h
- AUMC [15]: 8.44%
- Cmax [16]: 4100 ng/mL
- MRT inf [17]: 2.75 h
- concentration at 2 h [18]: 1370 ng/mL
- concentration at 2 h [19]: 391 ng/g
- concentration at 0.5 h [20]: 1420 ng/mL
- concentration at 2 h [21]: 196 ng/mL
- inhibition in vivo at 1.5 mg/kg [22]: 40%
- inhibition in vivo at 15 mg/kg [23]: 50%
- Activity [24]: Non-Toxic
- Activity [25]: inactive
- Activity [26]: inactive
- Activity [27]: inactive
- Tlast [28]: 24 h

Reference: ChEMBL document CHEMBL5370659 (J Med Chem, 2023)
